Measurements from PMC8699473, “An Easily Expandable Multi-Drug LC-MS Assay for the Simultaneous Quantification of 57 Oral Antitumor Drugs in Human Plasma” (Cancers, 2021).

Assay: Long-term stability in spiked pooled human plasma

| SMILES | Long-term stability, 1 month, -20°C Accuracy [%] (validation standard 2xLLOV) | Long-term stability, 1 month, -80°C Accuracy [%] (validation standard 2xLLOV) | Long-term stability, 2 month, -20°C Accuracy [%] (validation standard 2xLLOV) | Long-term stability, 2 month, -80°C Accuracy [%] (validation standard 2xLLOV) | Long-term stability, 3 month, -20°C Accuracy [%] (validation standard 2xLLOV) | Long-term stability, 3 month, -80°C Accuracy [%] (validation standard 2xLLOV) | Long-term stability, 6 weeks, 4°C, without daylight Accuracy [%] (validation standard 2xLLOV) | Long-term stability, 1 month, -20°C Accuracy [%] (validation standard LLOV) | Long-term stability, 1 month, -80°C Accuracy [%] (validation standard LLOV) | Long-term stability, 2 month, -20°C Accuracy [%] (validation standard LLOV) | Long-term stability, 2 month, -80°C Accuracy [%] (validation standard LLOV) | Long-term stability, 3 month, -20°C Accuracy [%] (validation standard LLOV) | Long-term stability, 3 month, -80°C Accuracy [%] (validation standard LLOV) | Long-term stability, 6 weeks, 4°C, without daylight Accuracy [%] (validation standard LLOV) | Long-term stability, 1 month, -20°C Accuracy [%] (validation standard MOV) | Long-term stability, 1 month, -80°C Accuracy [%] (validation standard MOV) | Long-term stability, 2 month, -20°C Accuracy [%] (validation standard MOV) | Long-term stability, 2 month, -80°C Accuracy [%] (validation standard MOV) | Long-term stability, 3 month, -20°C Accuracy [%] (validation standard MOV) | Long-term stability, 3 month, -80°C Accuracy [%] (validation standard MOV) | also measured |
| --- | --- | --- | --- | --- | --- | --- | --- | --- | --- | --- | --- | --- | --- | --- | --- | --- | --- | --- | --- | --- | --- |
| CCN1CCN(Cc2ccc(Nc3ncc(F)c(-c4cc(F)c5nc(C)n(C(C)C)c5c4)n3)nc2)CC1 [Abemaciclib] | 95.0% | 90.1% | 109.1% | 111.4% | 98.8% | 103.4% | 92.0% | 103.5% | 88.4% | 107.2% | 112.7% | 95.7% | 101.8% | 86.3% | 103.0% | 96.2% | 107.3% | 105.5% | 104.4% | 101.8% | Long-term stability, 6 weeks, 4°C, without daylight Accuracy [%] (validation standard MOV): 106.3%; Long-term stability, 1 month, -20°C Accuracy [%] (validation standard ULOV): 102.4%; Long-term stability, 1 month, -80°C Accuracy [%] (validation standard ULOV): 97.8%; Long-term stability, 2 month, -20°C Accuracy [%] (validation standard ULOV): 106.0%; Long-term stability, 2 month, -80°C Accuracy [%] (validation standard ULOV): 105.1%; Long-term stability, 3 month, -20°C Accuracy [%] (validation standard ULOV): 103.5%; Long-term stability, 3 month, -80°C Accuracy [%] (validation standard ULOV): 99.9%; Long-term stability, 6 weeks, 4°C, without daylight Accuracy [%] (validation standard ULOV): 99.1% |
| CN(C)C/C=C/C(=O)Nc1cc2c(Nc3ccc(F)c(Cl)c3)ncnc2cc1O[C@H]1CCOC1 [Afatinib] | 79.7% | 90.7% | 72.1% | 92.5% | 76.9% | 94.1% | 26.7% | 70.0% | 75.4% | 68.4% | 85.8% | 68.4% | 90.0% | 2.9% | 87.9% | 93.1% | 84.4% | 96.0% | 78.2% | 96.4% | Long-term stability, 6 weeks, 4°C, without daylight Accuracy [%] (validation standard MOV): 44.2%; Long-term stability, 1 month, -20°C Accuracy [%] (validation standard ULOV): 86.5%; Long-term stability, 1 month, -80°C Accuracy [%] (validation standard ULOV): 91.2%; Long-term stability, 2 month, -20°C Accuracy [%] (validation standard ULOV): 88.3%; Long-term stability, 2 month, -80°C Accuracy [%] (validation standard ULOV): 96.0%; Long-term stability, 3 month, -20°C Accuracy [%] (validation standard ULOV): 82.8%; Long-term stability, 3 month, -80°C Accuracy [%] (validation standard ULOV): 92.1%; Long-term stability, 6 weeks, 4°C, without daylight Accuracy [%] (validation standard ULOV): 37.3% |
| CNC(=O)c1ccc(N2C(=S)N(c3cnc(C#N)c(C(F)(F)F)c3)C(=O)C23CCC3)cc1F [Apalutamide] | 94.7% | 93.2% | 91.6% | 100.0% | 85.1% | 94.9% | 73.5% | 96.1% | 100.0% | 93.4% | 102.3% | 90.4% | 98.4% | 78.5% | 89.4% | 91.1% | 90.2% | 97.6% | 86.8% | 89.7% | Long-term stability, 6 weeks, 4°C, without daylight Accuracy [%] (validation standard MOV): 54.9%; Long-term stability, 1 month, -20°C Accuracy [%] (validation standard ULOV): 90.6%; Long-term stability, 1 month, -80°C Accuracy [%] (validation standard ULOV): 90.2%; Long-term stability, 2 month, -20°C Accuracy [%] (validation standard ULOV): 88.9%; Long-term stability, 2 month, -80°C Accuracy [%] (validation standard ULOV): 95.9%; Long-term stability, 3 month, -20°C Accuracy [%] (validation standard ULOV): 78.8%; Long-term stability, 3 month, -80°C Accuracy [%] (validation standard ULOV): 90.1%; Long-term stability, 6 weeks, 4°C, without daylight Accuracy [%] (validation standard ULOV): 48.1% |
